Data reported in US12479803B2, “Antimalarial compounds” (UNIVERSITY OF CENTRAL FLORIDA RESEARCH FOUNDATION, INC., priority 2019, dated 2025).
“And” between values parts separate entries of the source, which are not always exact repeats. Equal values may be shown once. Read-outs that look alike come from different tables or passages of the source.

Experiments:
[1] = system: CQ-resistant (Dd2) strain of P. falciparum; assay: In vitro antiplasmodial activity, SYBR Green I fluorescence assay, Dd2 strain; format: cell-based, Plasmodium falciparum
Description: (§1) A set of 104 new styrylquinoline derivatives were synthesized and investigated for in vitro their antimalarial activity. To test antimalarial activities, different dilutions of compounds were added to P. falciparum culture. Following 72 h incubation at 37° C. in an atmosphere containing 5% CO2, the inhibitory property of the compounds were determined by SYBR Green I fluorescence assay. Meanwhile, SARs studies were conducted.
The SAR studies were focused on improving the in vitro activity of 2-arylvinylquinolines against the CQ-resistant Pf Dd2 strain.

[2] = system: P. falciparum 3D7 strain (CQ-sensitive); assay: In vitro antiplasmodium activity, 3D7 strain; format: cell-based, Plasmodium falciparum
Description: as §1

[3] = system: HepG2; assay: Cytotoxicity assay using MTS in human hepatocytes; format: cell-based; settings: for SI, selectivity index = [IC50 (HepG2)/IC50 (Dd2)]: HepG2 versus Dd2
[4] = In vitro microsomal turnover assay (metabolic stability)
Description: Selectivity of compounds were determined by cytoxicity assay using MTS [(3-(4,5-dimethylthiazol-2-yl)-5-(3-carboxymethoxyphenyl)-2-(4-sulfophenyl)-2H-tetrazolium) in human hepatocytes. The metabolic stability of compounds was determined in mouse liver microsomes using an NADPH-regenerating system. The aqueous solubility at pH 7.4 was determined by UV-visible absorption based method. The permeability was assessed by the in vitro double-sink parallel artificial membrane permeability assay 52 that is a model for the passive transport from the gastrointestinal tract into the blood stream.
To assess the metabolic stability, the selected compounds were subjected to an in vitro microsomal turnover assay with mouse liver microsomal preparations. This assay determines the percentage of the parent compound residues after 60 min incubation (Table 7).

[5] = CQ-resistant (Dd2) strain, 72 h incubation, read-out: EC50 (nmol)
[6] = Table 6A, unit not given (text gives nM), footnote calls it IC50, read-out: Antiplasmodium activity Dd2 (converted)
[7] = Table 6A, nM, footnote calls it IC50, read-out: Antiplasmodium activity 3D7 (converted)

Compound	EC50 [1, 5] [nM]	also measured
CN(C)CCNc1cc(/C=C/c2ccccc2F)nc2ccc(Cl)cc12 [Compound 30]	26 ± 0.9	EC50 ([1]; Dd2 strain, read-out: EC50): 26 ± 0.9 nM; RI, resistance index = [IC50 (Dd2)/IC50 (3D7)] ([1]; Dd2 versus 3D7): 0.5; EC50 [1, 6]: 26 nM; EC50 ([2]; 3D7 strain, read-out: EC50): 55.9 ± 9.5 nM; IC50 [3]: 4830 nM; SI, selectivity index = [IC50 (HepG2)/IC50 (Dd2)] [3]: 186
CN(C)CCNc1cc(/C=C/c2cccc(F)c2)nc2ccc(Cl)cc12 [Compound 31]	5.9 ± 1.4	RI, resistance index = [IC50 (Dd2)/IC50 (3D7)] ([1]; Dd2 versus 3D7): 0.3; EC50 [1, 6]: 5.9 nM; Projected t1/2 [4]: 43.2 min; Clint ([4]; mouse, microsomes): 32.1 µL/min/mg; % remaining after 60 min ([4]; mouse, microsomes, 1 h): 38.2%; EC50 ([2]; 3D7 strain, read-out: EC50): 23 ± 2.8 nM; IC50 [3]: 4780 nM; SI, selectivity index = [IC50 (HepG2)/IC50 (Dd2)] [3]: 810
COc1ccc2nc(/C=C/c3ccncc3)cc(NCCN(C)C)c2c1 [Compound 41]		EC50 ([1]; Dd2 strain, read-out: EC50): 33.6 nM and 38.8 nM
COc1ccc2nc(/C=C/c3ccccn3)cc(NCCN(C)C)c2c1 [Compound 42]		EC50 ([1]; Dd2 strain, read-out: EC50): 1030 ± 233 nM
COc1ccc2nc(/C=C/c3cccnc3)cc(NCCN(C)C)c2c1 [Compound 43]	71 ± 27.5	
CN(C)CCNc1cc(/C=C/c2ccco2)nc2ccc(F)cc12 [Compound 44]		EC50 ([1]; Dd2 strain, read-out: EC50): 82.6 ± 9.4 nM
CN(C)CCNc1cc(/C=C/c2cccs2)nc2ccc(F)cc12 [Compound 45]	111 ± 29.1	
CN(C)CCNc1cc(/C=C/c2ccncc2)nc2ccc(F)cc12 [Compound 46]	36.1 ± 2.1	
CN(C)CCNc1cc(/C=C/c2ccco2)nc2ccc(Cl)cc12 [Compound 47]		EC50 ([1]; Dd2 strain, read-out: EC50): 37 ± 4.3 nM
CN(C)CCNc1cc(/C=C/c2cccs2)nc2ccc(Cl)cc12 [Compound 48]	29.7 ± 4.6	
CN(C)CCNc1cc(/C=C/c2nccs2)nc2ccc(Cl)cc12 [Compound 49]	240 ± 30.6	
CN(C)CCNc1cc(/C=C/c2ccccn2)nc2ccc(Cl)cc12 [Compound 51]	67.5 ± 1.9	
CN(C)CCNc1cc(/C=C/c2cccnc2)nc2ccc(Cl)cc12 [Compound 52]	33.6 ± 5.8	
CN(C)CCNc1cc(/C=C/c2cncnc2)nc2ccc(Cl)cc12 [Compound 53]		EC50 ([1]; Dd2 strain, read-out: EC50): 155 ± 11.6 nM
CN(C)CCNc1cc(/C=C/c2cc3ccccc3[nH]2)nc2ccc(Cl)cc12 [Compound 54]		EC50 ([1]; Dd2 strain, read-out: EC50): 95.9 ± 6.7 nM
COc1ccc2nc(/C=C/c3cc(NCCN(C)C)c4cc(Cl)ccc4n3)ccc2c1 [Compound 55]		EC50 ([1]; Dd2 strain, read-out: EC50): 281 ± 40.3 nM
CN(C)CCNc1cc(/C=C/c2cccc3ccccc23)nc2ccc(Cl)cc12 [Compound 56]	373 ± 19	
CN(C)CCNc1cc(/C=C/C2CCCCC2)nc2ccc(Cl)cc12 [Compound 57]	394 ± 40	
COc1ccc2nc(CCc3ccncc3)cc(NCCN(C)C)c2c1 [Compound 58]		EC50 ([1]; Dd2 strain, read-out: EC50): 709 ± 58.2 nM
CN(C)CCNc1cc(CCc2ccncc2)nc2ccc(Cl)cc12 [Compound 59]		EC50 ([1]; Dd2 strain, read-out: EC50): 259 ± 15.5 nM

Compound	EC50 [1, 5] [nM]	also measured
Fc1ccc(/C=C/c2cc(N3CCOCC3)c3cc(Cl)ccc3n2)cc1 [Compound 62]	6750 ± 1080	
Clc1ccc2nc(/C=C/c3ccncc3)cc(N3CCOCC3)c2c1 [Compound 63]	3590 ± 870	
N#Cc1ccc(/C=C/c2cc(N3CCOCC3)c3cc(Cl)ccc3n2)cc1 [Compound 64]	1010 ± 84.2	EC50 ([1]; Dd2 strain, read-out: EC50): > 1000 nM
Fc1ccc(/C=C/c2cc(N3CCCC3)c3cc(Cl)ccc3n2)cc1 [Compound 65]	428 ± 15	
Clc1ccc2nc(/C=C/c3ccncc3)cc(N3CCCC3)c2c1 [Compound 66]	1180 ± 175	
Fc1ccc(/C=C/c2cc(N3CCN(c4ccccn4)CC3)c3cc(Cl)ccc3n2)cc1 [Compound 67]	3300 ± 60	
Clc1ccc2nc(/C=C/c3ccncc3)cc(N3CCN(c4ccccn4)CC3)c2c1 [Compound 68]	2570 ± 610	
Fc1ccc(/C=C/c2cc(Nc3ccc(N4CCCCC4)cc3)c3cc(Cl)ccc3n2)cc1 [Compound 69]	667 ± 117	
Clc1ccc2nc(/C=C/c3ccncc3)cc(Nc3ccc(N4CCCCC4)cc3)c2c1 [Compound 70]	793 ± 81.3	
Fc1ccc(/C=C/c2cc(N3CCC(N4CCCCC4)CC3)c3cc(Cl)ccc3n2)cc1 [Compound 71]	487 ± 69.5	
Fc1ccc(/C=C/c2cc(NCCN3CCOCC3)c3cc(Cl)ccc3n2)cc1 [Compound 81]	24.2 ± 0.8	RI, resistance index = [IC50 (Dd2)/IC50 (3D7)] [1]: 0.6; EC50 [1, 6]: 24.2 ± 0.8 nM; EC50 [2, 7]: 41.8 ± 12.7 nM; IC50 [3]: 17200 ± 3300 nM; SI, selectivity index = [IC50 (HepG2)/IC50 (Dd2)] [3]: 711
Clc1ccc2nc(/C=C/c3ccncc3)cc(NCCN3CCOCC3)c2c1 [Compound 82]	137 ± 14.6	
Fc1ccc(/C=C/c2cc(NCCN3CCCC3)c3cc(Cl)ccc3n2)cc1 [Compound 83]	92.3 ± 5.8	
Clc1ccc2nc(/C=C/c3ccccc3)cc(NCCN3CCCC3)c2c1 [Compound 84]	107 ± 8.4	
Clc1ccc2nc(/C=C/c3ccncc3)cc(NCCN3CCCC3)c2c1 [Compound 85]	67.7 ± 11.6	
CN1CCN(CCNc2cc(/C=C/c3ccncc3)nc3ccc(Cl)cc23)CC1 [Compound 87]	53.3 ± 8.5	
Fc1ccc(/C=C/c2cc(NCCCN3CCOCC3)c3cc(Cl)ccc3n2)cc1 [Compound 90]	40.8 ± 5.6	
FC(F)(F)c1ccc(/C=C/c2cc(NCCCN3CCOCC3)c3cc(Cl)ccc3n2)cc1 [Compound 91]	84.8 ± 6.3	
CN1CCN(CCCCNc2cc(/C=C/c3ccccc3)nc3ccc(Cl)cc23)CC1 [Compound 94]	58.9 ± 8.8	
CN1CCN(CCCCNc2cc(/C=C/c3ccc(F)cc3)nc3ccc(Cl)cc23)CC1 [Compound 95]	43 ± 7.5	

Compound	EC50 [1, 5] [nM]	also measured
CN1CCN(CCCCNc2cc(/C=C/c3ccncc3)nc3ccc(Cl)cc23)CC1 [Compound 96]	33.4 ± 5.4	RI, resistance index = [IC50 (Dd2)/IC50 (3D7)] [1]: 0.9; EC50 [1, 6]: 33.4 ± 5.4 nM; EC50 [2, 7]: 36.1 ± 11.3 nM; IC50 [3]: 8380 ± 2580 nM; SI, selectivity index = [IC50 (HepG2)/IC50 (Dd2)] [3]: 251
FC(F)(F)c1ccccc1/C=C/c1cc(NCCCCN2CCOCC2)c2cc(Cl)ccc2n1 [Compound 99]		EC50 ([1]; Dd2 strain, read-out: EC50): 104 ± 7.2 nM
FC(F)(F)c1cccc(/C=C/c2cc(NCCCCN3CCOCC3)c3cc(Cl)ccc3n2)c1 [Compound 100]	33.9 ± 1.4	
FC(F)(F)Oc1ccc(/C=C/c2cc(NCCCCN3CCOCC3)c3cc(Cl)ccc3n2)cc1 [Compound 101]	56.6 ± 7.6	
FC(F)(F)c1cc(/C=C/c2cc(NCCCCN3CCOCC3)c3cc(Cl)ccc3n2)cc(C(F)(F)F)c1 [Compound 102]	108 ± 8	
Fc1cc(F)cc(/C=C/c2cc(NCCCCN3CCOCC3)c3cc(Cl)ccc3n2)c1 [Compound 103]	185 ± 34.1	
Fc1ccc(/C=C/c2cc(NCCCCN3CCOCC3)c3cc(Cl)ccc3n2)c(F)c1 [Compound 104]	72.6 ± 17.2	
Fc1cc(F)c(F)c(/C=C/c2cc(NCCCCN3CCOCC3)c3cc(Cl)ccc3n2)c1 [Compound 106]	588 ± 256	
Fc1cc(F)c(/C=C/c2cc(NCCCCN3CCOCC3)c3cc(Cl)ccc3n2)cc1F [Compound 107]	197 ± 39.7	
Fc1cc(/C=C/c2cc(NCCCCN3CCOCC3)c3cc(Cl)ccc3n2)cc(F)c1F [Compound 108]	130 ± 34.9	
Fc1cnccc1/C=C/c1cc(NCCCCN2CCOCC2)c2cc(Cl)ccc2n1 [Compound 109]		EC50 ([1]; Dd2 strain, read-out: EC50): 79.6 ± 11.8 nM
Fc1ccc(/C=C/c2cc(NCCCCN3CCOCC3)c3cc(Cl)ccc3n2)cn1 [Compound 110]	54.6 ± 16.5	IC50 ([1]; Dd2 strain): 54.6 ± 16.5 nM
Fc1ccc(/C=C/c2cc(NCCCCN3CCOCC3)c3cc(Cl)ccc3n2)nc1 [Compound 111]	73.1 ± 11.9	
Fc1cccnc1/C=C/c1cc(NCCCCN2CCOCC2)c2cc(Cl)ccc2n1 [Compound 112]		EC50 ([1]; Dd2 strain, read-out: EC50): 197 ± 16.5 nM
Fc1ccc(/C=C/C=C/c2cc(NCCCCN3CCOCC3)c3cc(Cl)ccc3n2)cc1 [Compound 113]	96.5 ± 24.4	
Clc1ccc2nc(/C=C/C=C/c3ccccc3)cc(NCCCCN3CCOCC3)c2c1 [Compound 114]	143 ± 18.6	
Clc1ccc2nc(-c3ccccc3)cc(NCCCCN3CCOCC3)c2c1 [Compound 119]	423 ± 62.7	
Clc1ccc2nc(-c3ccncc3)cc(NCCCCN3CCOCC3)c2c1 [Compound 120]	796 ± 161	
